The values below come from US4923865A, “Substituted 1-(1H-imidazol-4-yl)alkyl-benzamides as anti-ischemics and as alpha-2-adrenergic receptor agonists” (U C B Societe Anonyme, priority 1988, dated 1990).

As a reminder, the IC30 is the concentration at which the effect reaches the 30% level.

For data set [1], the target named is T1, presynaptic α2 -adrenergic receptors (Cavia porcellus, UniProt Q60474).
T1 construct: Stimulation of a guinea-pig ileum; from tissue; host or cells: guinea-pig ileum longitudinal muscle strips
T1 sequence (Q60474 1-464): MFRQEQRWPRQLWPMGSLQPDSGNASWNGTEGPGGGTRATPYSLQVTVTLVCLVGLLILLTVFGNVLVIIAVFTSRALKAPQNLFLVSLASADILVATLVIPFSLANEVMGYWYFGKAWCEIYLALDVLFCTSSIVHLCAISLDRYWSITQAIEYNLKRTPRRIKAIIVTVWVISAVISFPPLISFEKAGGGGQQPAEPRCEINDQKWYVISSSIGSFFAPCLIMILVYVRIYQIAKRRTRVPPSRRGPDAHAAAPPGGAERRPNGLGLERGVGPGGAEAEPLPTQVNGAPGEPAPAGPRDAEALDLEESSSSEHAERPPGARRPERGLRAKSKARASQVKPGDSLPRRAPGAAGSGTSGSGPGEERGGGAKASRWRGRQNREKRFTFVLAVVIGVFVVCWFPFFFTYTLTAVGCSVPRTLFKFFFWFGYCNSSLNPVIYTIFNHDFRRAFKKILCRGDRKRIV
As to the kind of experiment: Inhibition of the contraction of electrically stimulated guinea-pig ileum. From the text: (c) Stimulation of a guinea-pig ileum. Longitudinal muscles strips attached to an isometric strain gauge are suspended in Tyrode's solution and are stretched under a tension of 1 g (G. M. DREW. Brit. J. Pharmacol. 64, (1978), 293-300; M. ANDREJAK et al., Naunyn-Schmiedelberg's Arch. Pharmacol. 314, (1980), 83-87).
Electrical stimulation of the parasympathetic nerves associated with the ileum fragments causes a contraction of the muscle. This contraction is reduced in the presence of a presynaptic α2 -agonist and the magnitude by which the contraction is reduced depends on the concentration of the agonist used. This effect is antagonized by the simultaneous presence of an α2 -antagonist such as α-yohimbine. The compounds to be studied have been tested at increasing concentrations ranging from 10^-10 to 10^-3 mole/l.
The concentration (IC50 in mole/l) that reduces by 50% the intensity of the contraction of the muscle is determined.
In the presence of α-yohimbine at a concentration of 10^-6 mole/l, the concentration of the compounds A or B, for example, that is required for reducing muscle contraction intensity by 50% is higher, and becomes greater than 10^-6 mole/l, which gives additional confirmation that the compounds of the invention act really at the level of the presynaptic α2 -adrenergic receptors.

In data set [2] the test system is male NMRI mice. Kind of data set: Toxicity, Irwin's test (lethal dose). Type of data set: in vivo. Particulars: intraperitoneal. The protocol: 5. Toxicity. The toxicity of the compounds according to the present invention has been determined in male NMRI mice by means of Irwin's test (S. IRWIN, Psychopharmacologia, 13, (1968), 222-257).
Progressive doses of the test compound are administered intraperitoneally to groups of three mice until the lethal dose is reached (dose causing the death of two out of three animals within 48 hours). In Table IX below, the lethal dose in mg/kg found for the compounds of the invention is given. It can be seen from this Table that the compounds of the invention are not very toxic.

Data set [3] concerns the target T1, presynaptic α2 -adrenergic receptors. Kind of data set: Stimulation of the isolated guinea-pig atria (reduction in tachycardia). Particulars: isolated guinea-pig atria, electrical stimulation; read-out: IC30 (30% reduction in the maximum tachycardia). From the text: (b) Stimulation of the isolated guinea-pig atria. The release of noradrenalin at the level of the nerve endings is mediated by a feedback regulating mechanism through the presynaptic α2 -adrenergic receptors. […] Ed. D. S. DAVIES, J. L. REID, Pitman, London.
The electrical stimulation of the isolated guinea-pig atria induces a release of noradrenalin which results in an increase in the rate of the heart beat (tachycardia). This tachycardia is inhibited by an α2 -agonist such as, for example, clonidine, in a proportion which depends on the dose of the agonist used. The action of the α2 -agonist may be limited in the presence of an α2 -specific antagonist such as α-yohimbine.
The in vitro activity of the compounds of the invention on the presynaptic α2 -adrenergic receptors has been studied on the isolated guinea-pig atria, electrically stimulated according to the method described by I. C. MEDGETT et al., Naunyn-Schmiedeberg's Arch. Pharmacol. 304, (1978), 215-221. The compound to be studied is tested in increasing concentrations ranging from 10^-10 to 10^-3 mole/l. The concentration (IC30 in mole/l) which causes a 30% reduction in the maximum tachycardia obtained initially during the electrical stimulation of the atria in the absence of the compound to be tested, is determined.
On the other hand, in the presence of a concentration of 10^-6 mole/l of α-yohimbine, the concentration of compound A necessary to obtain a reduction of 30% in the tachycardia is greater than 10^-7 mole/l.

Data set [4] concerns myocardial ischemia. Kind of data set: Artificially induced acute coronary insufficiency in an awake dog (ST-segment elevation). Type of data set: in vivo. Particulars: Canis lupus familiaris, 0.1 h, intravenous, 6 min coronary occlusion, groups of ten animals, read-out: DE20 (dose producing a mean reduction of at least 20% of the ST-segment elevation). From the text:
Because of the reduction in the oxygen supply which results from this, the occlusion produces myocardial ischemia which is expressed on the electrocardiogram by a reproducible and quantifiable ST-segment elevation. The anti-ischemic action of a compound results in a reduction of the magnitude of the ST-segment elevation. (P. R. MAROKO and E. BRAUNWALD, Circulation, 53, (1976, Suppl. I), 162-168; S. E. EPSTEIN et al., Circulation, 53, (1976, Suppl. I), 191-197).

Data set [5] has as its system stenosis at the level of a coronary artery. Kind of data set: Effort trial on a moving belt in dogs with coronary artery stenosis. Type of data set: in vivo, dog. Particulars: maximum effort at 12 Km/h for 1 minute. As to the method: (b) Effort trial on a moving belt. In this test, a group of at least four dogs is used (equipped with intracardiac electrodes), the dogs having an organic stenosis at the level of a coronary artery. This stenosis causes imbalance between the demand and supply of oxygen when the animal is required to make an effort. This imbalance is expressed on the electrocardiogram by an increase in the ST-segment.
In the trial, the dog runs at a speed of 12 km/h on a moving belt having a slope of 15°. This maximum effort is required for one minute. During the trial, the increase in the ST-segment is recorded, together with the natural increase in the pulse rate. The experiment is repeated at least four times, and the mean of the values obtained is taken as reference (100%) for the group of animals. The animals are then allowed to rest for a minimum of 24 hours before being subjected to a new effort trial under the influence of the compound to be studied.
The compound to be studied is administered slowly (over 1 minute) by intravenous injection 5 minutes before the new effort trial. In the course of the latter, the variations in the same parameters are recorded.

The mark [6] stands for this setting: guinea-pig ileum, electrical stimulation, read-out: IC50 (reduces by 50% the intensity of the contraction of the muscle).

Molecules are shown by their SMILES. Like-named read-outs stand apart in the source and are kept apart here. Where only a bound is given, the exact number is not on record here.

As for `CC(c1c[nH]cn1)c1cccc(C(N)=O)c1O.Cl` (single isomer, unassigned; (+)) [P, (+)-2-hydroxy-3-[1-(1H-imidazol-4-yl)ethyl]-benzamide hydrochloride], the IC50 in data set [1] (setting [6]) was found to be 2 nM. Further, the “lethal dose (death of two out of three animals within 48 hours)” value (from here on “lethal dose”) in data set [2] is recorded as 294 mg/kg.

As to `CC(c1c[nH]cn1)c1cccc(C(N)=O)c1O.Cl` (stereo not drawn) [B, 2-hydroxy-3-[1-(1H-imidazol-4-yl)ethyl]-benzamide hydrochloride], in data set [3], the IC30 is 0.75 nM. The IC50 in data set [1] (setting [6]) is 3 nM; in data set [1] (in the presence of 10^-6 mole/l of α-yohimbine, read-out: concentration required for reducing muscle contraction intensity by 50%) it was greater than 1000 nM. In data set [4], the ED20 was determined as 0.02 µmol/kg. In addition, the “lethal dose” value in data set [2] was found to be 267 mg/kg.

Take `CNC(=O)c1cccc(Cc2c[nH]cn2)c1O.Cl` [C, 2-hydroxy-3-[(1H-imidazol-4-yl)methyl]-N-methylbenzamide hydrochloride]: in data set [3], the concentration for an effect of 30% (IC30) was 130 nM. Besides, the ED20 in data set [4] worked out at 0.3 µmol/kg. In data set [5] (dose 0.32 μmole/kg i.v.), the “reduction in ST-segment” value is 50% and the “reduction in the pulse rate” value was determined as 1 beats/min. In addition, in data set [2], the “lethal dose” value was found to be 267 mg/kg.

As for `NNC(=O)c1cccc(Cc2c[nH]cn2)c1O` [Compound D, 2-hydroxy-3-[(1H-imidazol-4-yl)methyl]-benzohydrazide], the IC30 in data set [3] came out at 220 nM. Also, the ED20 in data set [4] was determined as 3 µmol/kg. In addition, in data set [2], the “lethal dose” value worked out at 232 mg/kg.

Take `Cl.O=C(NCCO)c1cccc(Cc2c[nH]cn2)c1O` [E, 2-hydroxy-N-(2-hydroxyethyl)-3-[(1H-imidazol-4-yl)methyl]-benzamide hydrochloride]: the IC50 in data set [1] (setting [6]) is 60000 nM. In addition, the ED20 in data set [4] was less than 3 µmol/kg. Moreover, the “lethal dose” value in data set [2] is recorded as 893 mg/kg.

`COc1c(Cc2c[nH]cn2)cccc1C(N)=O.Cl` [F, 3-[(1H-imidazol-4-yl)methyl]-2-methoxybenzamide hydrochloride]: the 30% effect concentration (IC30) in data set [3] turned out to be 70 nM. For the same compound, the IC50 in data set [1] (setting [6]) worked out at 70000 nM. In data set [4], the ED20 was less than 3 µmol/kg. The “lethal dose” value in data set [2] worked out at 802 mg/kg.

For `NC(=O)c1cc(Cc2c[nH]cn2)ccc1O` [G, 2-hydroxy-5-[(1H-imidazol-4-yl)methyl]-benzamide], the ED20 in data set [4] is less than 1 µmol/kg. In addition, the “lethal dose” value in data set [2] came out at 651 mg/kg.

As for `CN(C)C(=O)c1cccc(Cc2c[nH]cn2)c1O` [H, 2-hydroxy-3-[(1H-imidazol-4-yl)methyl]-N,N-dimethylbenzamide], the “lethal dose” value in data set [2] was 245 mg/kg.

For `Cl.NC(=O)c1c(O)ccc(Cc2c[nH]cn2)c1O` [I, 2,6-dihydroxy-3-[(1H-imidazol-4-yl)methyl]-benzamide hydrochloride], the IC50 in data set [1] (setting [6]) was 300 nM. For the same compound, in data set [4], the ED20 came out at 0.32 µmol/kg. In addition, the “lethal dose” value in data set [2] was greater than 270 mg/kg.

Consider `CC(C)(C)c1cc(Cc2c[nH]cn2)c(O)c(C(N)=O)c1` [J, 5-tert-butyl-2-hydroxy-3-[(1H-imidazol-4-yl)methyl]-benzamide], for which, in data set [1] (setting [6]), the IC50 turned out to be 30000 nM.

Consider `Cc1ccc(Cc2c[nH]cn2)c(O)c1C(N)=O.Cl` [K, 2-hydroxy-3-[(1H-imidazol-4-yl)methyl]-6-methylbenzamide hydrochloride], for which the ED20 in data set [4] came to 0.32 µmol/kg. For the same compound, the “lethal dose” value in data set [2] was greater than 268 mg/kg.

With `Cc1ccc(C(N)=O)c(O)c1Cc1c[nH]cn1` [L, 2-hydroxy-3-[(1H-imidazol-4-yl)methyl]-4-methylbenzamide], the IC50 in data set [1] (setting [6]) turned out to be 30 nM. For the same compound, the “lethal dose” value in data set [2] was 231 mg/kg.

With `Cl.O=C(NO)c1cccc(Cc2c[nH]cn2)c1O` [M, N,2-dihydroxy-3-[(1H-imidazol-4-yl)methyl]-benzamide hydrochloride], the IC50 in data set [1] (setting [6]) amounted to 400 nM. Besides, in data set [2], the “lethal dose” value is listed as greater than 288 mg/kg.

`CC(c1c[nH]cn1)c1ccc(O)c(C(N)=O)c1O.Cl` (stereo not drawn) [N, 2,6-dihydroxy-3-[1-(1H-imidazol-4-yl)ethyl]-benzamide hydrochloride]: the “lethal dose” value in data set [2] was 284 mg/kg.

As for `Cc1c(Cc2c[nH]cn2)ccc(O)c1C(N)=O.Cl` [O, 6-hydroxy-3-[(1H-imidazol-4-yl)methyl]-2-methylbenzamide hydrochloride], in data set [2], the “lethal dose” value is greater than 268 mg/kg.

As for `Clc1cccc(Cl)c1N=C1NCCN1` [clonidine, reference compound], the concentration for an effect of 30% (IC30) in data set [3] was found to be 3.2 nM. In addition, the IC50 in data set [1] (setting [6]) worked out at 20 nM.

`CC(C)NCC(O)COc1cccc2ccccc12` (stereo not drawn) [propranolol, 1-(isopropylamino)-3-(1-naphthyloxy)-2-propanol, reference compound]: the ED20 in data set [4] turned out to be 2 µmol/kg. Also, in data set [5] (dose 1.0 μmole/kg i.v.), the “reduction in ST-segment” value was determined as 74% and the “reduction in the pulse rate” value is recorded as 35 beats/min.
